Results taken from PMC9653606, “Synergistic Effect of DIBOA and Verbascoside from Acanthus mollis Leaf on Tyrosinase Inhibition” (International Journal of Molecular Sciences, 2022).

Target: mushroom tyrosinase
Assay: L-DOPA oxidation (dopachrome, […] nm) inhibition assay with Lineweaver-Burk kinetics
Assay type: biochemical

## C[C@@H]1O[C@@H](O[C@@H]2[C@@H](O)[C@H](OCCc3ccc(O)c(O)c3)O[C@H](CO)[C@H]2OC(=O)/C=C/c2ccc(O)c(O)c2)[C@H](O)[C@H](O)[C@H]1O [compound 8, 2-(3,4-dihydroxyphenyl)ethyl-1-O-α-L-rhamnopyranosyl-(1→3)-(4-O-Ε-caffeoyl)-β-D-glucopyranoside]
  IC50: 22.7 ± 2.83 µM

## O=C1C(O)Oc2ccccc2N1O (centres unmarked) [compound 1, 2,4-dihydroxy-1,4-benzoxazin-3-one]
  IC50: 27.2 ± 3 µM
